From patent US10022389B2, “Prophylactic or therapeutic drug for constipation” (TAISHO PHARMACEUTICAL CO., LTD., priority 2013, dated 2018)

Experiments:
Assay type in all cases: in vivo, SD/IGS rats
[1] = test system: rats with constipation induced by low-fiber diet; assay: Test 1: ameliorating effect on constipation models fed on low-fiber diet; conditions: low-fiber diet constipation model rats, oral in 0.5% MC, dosed twice (0 and 8 h)
Protocol: Test 1: Ameliorating Effect on Constipation Models Fed on Low-Fiber Diet
SD/IGS rats (6-wk old; CHARLES RIVER LABORATORIES JAPAN, INC.) in groups, each consisting of two heads per cage, were fed on a diet with a decreased dietary fiber content of 5% for a week in order to induce constipation. The normal group was fed on a standard diet with 15% dietary fiber (MF diet; ORIENTAL YEAST CO., LTD.) On the day before the test, each rat was measured for body weight and thereafter transferred into an individual cage. Grouping was performed on the basis of the body weights measured on the day before the test. The experimental groups of rats with induced constipation were orally administered compound (I) in a volume of 5 mL/kg body weight as dissolved in 0.5% (w/v) methylcellulose (MC), whereas the control vehicle group was orally administered 0.5% MC only. […] Immediately after the first administration, a stool recovery tray was placed under each cage and starting 2 hours after the administration, stools were recovered every two hours until 24 hours after the administration; the appearance of the recovered stools was observed and their weight was measured. To determine their moisture content, the stools were measured for their wet weight, dried for at least 8 hours at 100° C., measured for dry weight, and its proportion (%) to the wet weight was calculated. […]

[2] = test system: rats with loperamide-induced constipation; assay: Test 2: ameliorating effect on loperamide-induced constipation; conditions: loperamide (5 mg/kg p.o.) constipation model rats, oral in 0.5% MC
Protocol: Test 2: Ameriolating Effect on Loperamide-Induced Constipation
The effects on constipation as induced by loperamide which suppresses the propulsion of the digestive tract's contents and the secretion of intestinal juice were investigated.
SD/IGS rats (6-wk old; CHARLES RIVER LABORATORIES JAPAN, INC.) in groups, each consisting of one head per cage, were kept in a day-and-night reversal room for 11 days. The rats were fasted for about 16 hours and orally administered 0.5% MC suspended loperamide at a dose of 5 mg/5 mL/kg body weight to prepare constipation models. The normal group was orally administered on 0.5% MC only. […] Immediately after the administration of compound (I), 5 g of a standard diet (MF diet; ORIENTAL YEAST CO., LTD.) was applied and thereafter, a stool recovery tray was placed under each cage and starting 2 hours after the administration, stools were recovered every two hours until after 12 hours; the appearance of the recovered stools was observed and their weight was measured. To determine their moisture content, the stools were measured for their wet weight, dried for at least 8 hours at 100° C., measured for dry weight, and its proportion (%) to the wet weight was calculated. […]

[3] = Test 3: percentage of compound (I) remaining unaltered in rat's digestive tract; conditions: 1 mg/kg oral; for Remaining unaltered, cecum/large intestine (including the contents), relative to dose / Remaining unaltered, small intestine's contents, relative to dose / Remaining unaltered, small intestine, relative to dose / Remaining unaltered, total, relative to dose: average of 4 cases ± S.D.
Protocol: Test 3: Percentage of Compound (I) Remaining Unaltered in Rat's Digestive Tract
Seven-week old SD/IGS rats (CHARLES RIVER LABORATORIES JAPAN, INC.; male; fasted) were orally administered compound (I) (1 mg/kg) formulated with an aqueous solution of 0.5% CMC-Na (carboxymethylcellulose sodium salt). One, four and seven hours after the drug administration, the rats were euthanized under anesthetization with ether and their small intestine, cecum, and large intestine were removed. The contents of the small intestine were recovered by infusing the small intestine with 20 mL of physiological saline. After washing the tissue's surface with physiological saline, the tissues and the recovered contents were measured for their weight and homogenized under cooling with ice in the presence of added 4 volumes of purified water. The homogenate was deproteinated in the presence of an added acetonitrile/methanol solution containing an internal standard and, thereafter, the supernatant was analyzed by LC-MS/MS (Applied Biosystems: API3000). Drug-derived ions were detected by selected reaction monitoring based on electrospray ionization in a positive ion mode. From peak areas in the resulting extracted ion chromatogram, drug concentrations in the homogenate were calculated by the internal standard method.
The internal standard here used was compound 11 disclosed in WO2007/136116.

- dose remaining unaltered in the small intestine and its contents ([3]; 1 hour after drug administration): about 75%
- Remaining unaltered, cecum/large intestine (including the contents), relative to dose ([3]; 1 hr after dosing): 0.2 ± 0.3 % of dose
- Remaining unaltered, small intestine's contents, relative to dose ([3]; 1 hr after dosing): 70.3 ± 6.7 % of dose
- Remaining unaltered, small intestine, relative to dose ([3]; 1 hr after dosing): 4.9 ± 0.6 % of dose
- Remaining unaltered, total, relative to dose ([3]; 1 hr after dosing): 75.4 ± 6.3 % of dose
- dose remaining unaltered in the small intestine and its contents ([3]; 4 hours after drug administration): about 75%
- Remaining unaltered, cecum/large intestine (including the contents), relative to dose ([3]; 4 hr after dosing): 33.1 ± 44.5 % of dose
- Remaining unaltered, small intestine's contents, relative to dose ([3]; 4 hr after dosing): 69.7 ± 44.9 % of dose
- Remaining unaltered, small intestine, relative to dose ([3]; 4 hr after dosing): 6.4 ± 5.3 % of dose
- Remaining unaltered, total, relative to dose ([3]; 4 hr after dosing): 109.2 ± 10.7 % of dose
- Remaining unaltered, cecum/large intestine (including the contents), relative to dose ([3]; 7 hr after dosing): 84.2 ± 8.8 % of dose
- Remaining unaltered, small intestine's contents, relative to dose ([3]; 7 hr after dosing): 1.6 ± 1.2 % of dose
- Remaining unaltered, small intestine, relative to dose ([3]; 7 hr after dosing): 0.7 ± 0.3 % of dose
- Remaining unaltered, total, relative to dose ([3]; 7 hr after dosing): 86.5 ± 9.2 % of dose
SMILES: COc1cc(C(C)C)c(Cc2ccc(/C=C/C(C)(C)C(=O)NC(C)(C)C(=O)NCCN(C)C)cc2)cc1[C@@H]1O[C@H](CO)[C@@H](O)[C@H](O)[C@H]1O [Compound (I), (1S)-1,5-anhydro-1-[5-(4-{(1E)-4-[(1-{[2-(dimethylamino)ethyl]amino}-2-methyl-1-oxopropan-2-yl)amino]-3,3-dimethyl-4-oxobut-1-en-1-yl}benzyl)-2-methoxy-4-(propan-2-yl)phenyl]-D-glucitol]
- wet weight of stools ([1]; stools recovered until 24 hours (FIG. 1)): increased
- moisture content of stools ([1]; stools recovered until 24 hours (FIG. 2)): increased
- wet weight of stools ([2]; stools recovered until 12 hours (FIG. 3)): increased
- moisture content of stools ([2]; stools recovered until 12 hours (FIG. 4)): increased
